Reference: ChEMBL document CHEMBL1141197, “Interaction of papain-like cysteine proteases with dipeptide-derived nitriles” (J Med Chem, 2005)
Where a SMILES comes first, the peptide text is derived from it. The star is where a group is joined. Boc = CC(C)(C)OC(=O)*

Experiments:
Papain = biological target: T1, Papain (Carica papaya, UniProt P00784); test: Inhibitory activity against papain using Z-Phe-Arg-NHNp substrate
T1 sequence (P00784 whole entry): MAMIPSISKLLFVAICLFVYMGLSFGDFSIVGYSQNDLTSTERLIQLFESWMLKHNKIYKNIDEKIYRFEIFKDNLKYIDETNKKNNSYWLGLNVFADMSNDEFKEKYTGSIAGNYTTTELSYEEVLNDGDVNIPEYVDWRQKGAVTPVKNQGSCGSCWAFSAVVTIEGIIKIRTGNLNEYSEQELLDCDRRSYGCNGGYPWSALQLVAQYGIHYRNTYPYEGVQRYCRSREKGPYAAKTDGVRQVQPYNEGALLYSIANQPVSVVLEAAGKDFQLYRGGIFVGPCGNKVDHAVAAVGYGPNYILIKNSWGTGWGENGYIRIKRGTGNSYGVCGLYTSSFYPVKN

Cathepsin K = biological target: T2, Cathepsin K (Homo sapiens, UniProt P43235); test: Inhibitory activity against human cathepsin K using Z-Leu-Arg-NHMec substrate
T2 sequence (P43235 whole entry): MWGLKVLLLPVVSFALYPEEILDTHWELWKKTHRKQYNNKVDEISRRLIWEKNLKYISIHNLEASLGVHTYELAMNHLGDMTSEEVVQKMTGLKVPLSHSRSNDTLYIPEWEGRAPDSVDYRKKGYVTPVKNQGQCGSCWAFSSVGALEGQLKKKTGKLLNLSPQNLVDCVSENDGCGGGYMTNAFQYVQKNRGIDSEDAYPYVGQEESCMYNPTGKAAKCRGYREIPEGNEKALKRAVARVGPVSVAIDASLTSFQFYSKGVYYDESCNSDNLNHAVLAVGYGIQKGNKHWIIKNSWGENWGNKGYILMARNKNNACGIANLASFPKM

Cathepsin S = Cathepsin S (Homo sapiens, UniProt P25774); test: Inhibitory activity against human cathepsin S using Z-Val-Val-Arg-NHMec substrate
Procathepsin L [1] = biological target: Procathepsin L (Bos taurus, UniProt P25975); test: Inhibitory activity against bovine cathepsin L using Z-Phe-Arg-NHMec substrate
Procathepsin L [2] = biological target: Procathepsin L (Homo sapiens, UniProt P07711); test: Inhibitory activity against human cathepsin L using Z-Phe-Arg-NHMec substrate
Sequence of Procathepsin L (Homo sapiens, UniProt P07711) (P07711 whole entry): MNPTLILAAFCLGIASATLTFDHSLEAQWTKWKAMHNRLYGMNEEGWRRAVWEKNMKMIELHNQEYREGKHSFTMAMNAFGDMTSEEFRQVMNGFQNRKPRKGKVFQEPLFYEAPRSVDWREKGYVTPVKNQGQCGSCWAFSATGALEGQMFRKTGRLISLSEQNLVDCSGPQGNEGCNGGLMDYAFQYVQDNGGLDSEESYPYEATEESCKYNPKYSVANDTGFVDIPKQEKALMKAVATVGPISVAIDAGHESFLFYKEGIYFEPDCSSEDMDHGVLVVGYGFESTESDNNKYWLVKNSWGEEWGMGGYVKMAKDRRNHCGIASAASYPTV

Sequence of Procathepsin L (Bos taurus, UniProt P25975) (P25975 whole entry): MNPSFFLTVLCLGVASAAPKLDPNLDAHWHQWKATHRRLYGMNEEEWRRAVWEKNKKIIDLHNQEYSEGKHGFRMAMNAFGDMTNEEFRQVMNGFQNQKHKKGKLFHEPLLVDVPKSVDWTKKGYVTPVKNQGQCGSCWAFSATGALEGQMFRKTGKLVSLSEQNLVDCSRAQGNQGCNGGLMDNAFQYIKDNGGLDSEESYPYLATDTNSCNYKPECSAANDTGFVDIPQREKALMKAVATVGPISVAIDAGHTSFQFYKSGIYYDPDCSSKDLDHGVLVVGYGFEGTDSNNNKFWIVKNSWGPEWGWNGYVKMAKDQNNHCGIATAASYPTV
Sequence of Cathepsin S (P25774 whole entry): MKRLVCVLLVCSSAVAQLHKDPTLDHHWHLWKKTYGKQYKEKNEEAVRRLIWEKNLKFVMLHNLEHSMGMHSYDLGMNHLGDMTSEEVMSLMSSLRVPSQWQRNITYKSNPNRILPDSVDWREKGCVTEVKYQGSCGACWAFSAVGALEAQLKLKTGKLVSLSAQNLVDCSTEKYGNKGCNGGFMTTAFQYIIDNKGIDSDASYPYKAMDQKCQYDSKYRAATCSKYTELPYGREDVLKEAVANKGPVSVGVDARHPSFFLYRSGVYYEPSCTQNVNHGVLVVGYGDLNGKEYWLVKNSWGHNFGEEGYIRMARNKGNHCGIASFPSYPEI

| SMILES | Ki (Papain) | Ki (Cathepsin K) | Ki (Cathepsin S) | Ki (Procathepsin L [1]) | Ki (Procathepsin L [2]) |
| --- | --- | --- | --- | --- | --- |
| CC(C)C[C@H](NC(=O)OCc1ccccc1)C(=O)NCC#N | 3.1 µM | 0.035 µM | 0.13 µM | 0.75 µM | – |
| CC(C)(C)OC(=O)N[C@@H](Cc1csc2ccccc12)C(=O)NCC#N | 7.4 µM | 34 µM | 0.3 µM | 0.32 µM | 0.29 µM |
| CC(C)(C)OC(=O)NN(Cc1ccccc1)C(=O)NCC#N | 725 µM | > 100 µM | > 50 µM | > 100 µM | – |
| CC(=O)CNC(=O)[C@H](Cc1ccccc1)NC(=O)OC(C)(C)C | 187 µM | 2.1 µM | 2.1 µM | 2.3 µM | – |
| CC(C)(C)OC(=O)N[C@@H](Cc1ccccc1-c1ccccc1)C(=O)NCC#N | 299 µM | > 100 µM | > 100 µM | > 100 µM | – |
| CC(C)(C)OC(=O)N[C@H](Cc1ccccc1)C(=O)NCC#N | 41 µM | > 100 µM | 46 µM | – | – |
| CC[C@H](NC(=O)OC(C)(C)C)C(=O)NCC#N | 5.4 µM | 5 µM | 28 µM | > 100 µM | – |
| CN(CC#N)C(=O)[C@H](Cc1ccccc1)NC(=O)OC(C)(C)C | > 100 µM | > 100 µM | > 100 µM | > 100 µM | – |
| CC(C)(C)OC(=O)N[C@@H](Cc1ccco1)C(=O)NCC#N | 1.2 µM | 4.1 µM | 2.8 µM | 14 µM | – |
| CC(C)(C)OC(=O)N[C@@H](COCc1ccccc1)C(=O)NCC#N | 11 µM | > 100 µM | 2.2 µM | 33 µM | – |
| CCCC[C@H](NC(=O)OC(C)(C)C)C(=O)NCC#N | 1.57 µM | 1.27 µM | 0.55 µM | 19 µM | – |
| CC(C)(C)OC(=O)N[C@@H](Cc1c[nH]c2ccccc12)C(=O)NCC#N | 7.6 µM | 29 µM | 0.24 µM | 0.35 µM | 0.43 µM |
| CC(C)(C)OC(=O)N[C@@H](Cc1ccsc1)C(=O)NCC#N | 0.57 µM | 2.1 µM | 0.76 µM | 4.5 µM | – |
| CC(C)(C)OC(=O)N1CCC[C@H]1C(=O)NCC#N | 537 µM | > 100 µM | > 100 µM | > 100 µM | – |
| CC(C)C[C@H](NC(=O)OC(C)(C)C)C(=O)NCC#N | 2 µM | 0.12 µM | 0.13 µM | 1.2 µM | – |
| N#CCNC(=O)CNS(=O)(=O)c1ccc2ccccc2c1 | 10 µM | > 100 µM | 2.5 µM | 25 µM | – |
| CC(C)[C@H](NC(=O)OC(C)(C)C)C(=O)NCC#N | 2 µM | 6.5 µM | 6.2 µM | 2.8 µM | – |

| SMILES | Ki (Papain) | Ki (Cathepsin K) | Ki (Cathepsin S) | Ki (Procathepsin L [1]) | Ki (Procathepsin L [2]) |
| --- | --- | --- | --- | --- | --- |
| CSCC[C@H](NC(=O)OC(C)(C)C)C(=O)NCC#N | 0.65 µM | 0.73 µM | 0.66 µM | 19 µM | – |
| CC(C)(C)OC(=O)N[C@@H](Cc1cccc(F)c1)C(=O)NCC#N | 0.5 µM | 6.3 µM | 0.86 µM | 0.7 µM | – |
| CC(C)(C)OC(=O)N[C@@H](Cc1c(F)c(F)c(F)c(F)c1F)C(=O)NCC#N | 14 µM | > 100 µM | 15 µM | 2.5 µM | – |
| CC(C)(C)OC(=O)N[C@@H](CC1CCCCC1)C(=O)NCC#N | 2.2 µM | 5.3 µM | 0.044 µM | 1.1 µM | – |
| CC(C)(C)OC(=O)N[C@@H](CC1CC1)C(=O)NCC#N | 13 µM | 3.3 µM | 0.65 µM | 47 µM | – |
| CC(C)(C)OC(=O)N[C@H](C(=O)NCC#N)c1ccccc1 | 83 µM | 90 µM | 1.7 µM | 29 µM | – |
| CC(C)(C)OC(=O)N[C@@H](Cc1cccc2ccccc12)C(=O)NCC#N | 28 µM | 66 µM | 1.3 µM | 1.7 µM | – |
| C#CCNC(=O)[C@H](Cc1ccccc1)NC(=O)OC(C)(C)C | 497 µM | > 1000 µM | > 100 µM | > 1000 µM | – |
| CC(C)(C)OC(=O)NCC(=O)NCC#N | > 3000 µM | > 1000 µM | > 1000 µM | > 1000 µM | – |
| C[C@H](NC(=O)OC(C)(C)C)C(=O)NCC#N | 22 µM | 136 µM | 292 µM | > 100 µM | – |
| CC(C)(C)OC(=O)N[C@@H](Cc1cccc(-c2ccccc2)c1)C(=O)NCC#N | 1.2 µM | 26 µM | 0.27 µM | 0.43 µM | – |
| CC[C@@H](C)[C@H](NC(=O)OC(C)(C)C)C(=O)NCC#N | 26 µM | 5.8 µM | 4.1 µM | 4.9 µM | – |
| C=CCNC(=O)[C@H](Cc1ccccc1)NC(=O)OC(C)(C)C | 497 µM | > 1000 µM | > 100 µM | > 1000 µM | – |
| CC(C)(C)OC(=O)N[C@@H](CCc1ccccc1)C(=O)NCC#N | 12 µM | 8.5 µM | 1.9 µM | 9.4 µM | – |
| N#CCNC(=O)CNC(=O)OCc1ccccc1 | 1600 µM | > 1000 µM | > 1000 µM | > 1000 µM | – |
| CCC[C@H](NC(=O)OC(C)(C)C)C(=O)NCC#N | 0.75 µM | 1.1 µM | 0.9 µM | 22 µM | – |

Stronger by Ki (Papain), values ahead:

| Ki (Papain) | Ki (Cathepsin K) | Ki (Cathepsin S) | Ki (Procathepsin L [1]) | Ki (Procathepsin L [2]) | SMILES |
| --- | --- | --- | --- | --- | --- |
| 0.38 µM | 7.5 µM | 1.4 µM | 5.8 µM | – | CC(=O)N[C@@H](Cc1ccccc1)C(=O)NCC#N |
| 0.016 µM | 0.3 µM | 0.24 µM | 0.55 µM | – | N#CCNC(=O)[C@H](Cc1ccccc1)NC(=O)c1ccc(-c2ccccc2)cc1 |
| 0.27 µM | 13 µM | 0.59 µM | 0.64 µM | – | CC(C)(C)OC(=O)N[C@@H](Cc1ccc(F)cc1)C(=O)NCC#N |
| 0.36 µM | 0.26 µM | 0.51 µM | 0.18 µM | 0.23 µM | N#CCNC(=O)[C@H](Cc1ccccc1)NC(=O)OCc1ccccc1 |
| 0.4 µM | 3.3 µM | 0.77 µM | 0.47 µM | – | CC(C)(C)OC(=O)N[C@@H](Cc1ccccc1F)C(=O)NCC#N |
| 0.19 µM | 1.2 µM | 0.27 µM | 1.6 µM | – | CC(C)(C)OC(=O)N[C@@H](Cc1cccs1)C(=O)NCC#N |
| 0.26 µM | 4.1 µM | 0.62 µM | – | – | CC(C)(C)OC(=O)N[C@@H](Cc1ccccc1)C(=O)NCC#N |
| 0.015 µM | 0.074 µM | 0.025 µM | 0.022 µM | – | CC(C)(C)OC(=O)N[C@@H](Cc1ccccc1)C(=O)NCC=O (Boc-Phe-Gly-aldehyde) |
| 0.021 µM | 83 µM | 0.083 µM | 0.12 µM | – | CC(C)(C)OC(=O)N[C@@H](Cc1ccc2ccccc2c1)C(=O)NCC#N |
| 0.029 µM | 28 µM | 0.19 µM | 0.63 µM | – | CC(C)(C)OC(=O)N[C@@H](Cc1ccc(Br)cc1)C(=O)NCC#N |
| 0.19 µM | 30 µM | 0.97 µM | 0.4 µM | – | CC(C)(C)OC(=O)N[C@@H](Cc1ccc(O)cc1)C(=O)NCC#N |
| 0.46 µM | 4.2 µM | 0.61 µM | 1.1 µM | – | CC(C)(C)OC(=O)N[C@@H](Cc1ccccc1Br)C(=O)NCC#N |
| 0.016 µM | 16 µM | 0.44 µM | 0.34 µM | – | CC(C)(C)OC(=O)N[C@@H](Cc1ccc(-c2ccccc2)cc1)C(=O)NCC#N |
| 0.062 µM | 1.5 µM | 0.077 µM | 0.23 µM | – | N#CCNC(=O)[C@H](Cc1ccccc1)NC(=O)c1ccccc1 |
| 0.33 µM | 6.5 µM | 0.34 µM | 0.27 µM | – | CC(C)(C)OC(=O)N[C@@H](Cc1cccc(Br)c1)C(=O)NCC#N |
